# Earlier results in US20100209350A1, “Biomarkers for Adipose Tissue Activity” (priority 2008, published 2010).
# System: adiponectin
# Conditions: patient responding to the therapy; sample such as blood; general statement, no study described
compound,measurement,value
CN(C)C(=N)N=C(N)N [metformin],increase of adiponectin level from a reference value,about 20%
